The source made the active and inactive calls. The rule behind the calls is not given here.
Tests used:
[1] = target: T1, PRMT5/MEP50 complex (Homo sapiens) (UniProt O14744+Q9BQA1); test: (§1) Inhibition of human full length PRMT5-MEP50 complex expressed in Sf9 cells
PRMT5/MEP50 complex [2] = target: T2, PRMT5/MEP50 complex (Homo sapiens, UniProt O14744); test: as §1
[3] = target: Protein arginine N-methyltransferase 5 (Homo sapiens, UniProt O14744); test: Inhibition of human full length PRMT5 expressed in Sf9 cells
[4] = target: T3, Protein arginine N-methyltransferase 7 (Homo sapiens, UniProt Q9NVM4); test: Inhibition of human full length PRMT7 expressed in Sf9 cells
T3 sequence (Q9NVM4 whole entry): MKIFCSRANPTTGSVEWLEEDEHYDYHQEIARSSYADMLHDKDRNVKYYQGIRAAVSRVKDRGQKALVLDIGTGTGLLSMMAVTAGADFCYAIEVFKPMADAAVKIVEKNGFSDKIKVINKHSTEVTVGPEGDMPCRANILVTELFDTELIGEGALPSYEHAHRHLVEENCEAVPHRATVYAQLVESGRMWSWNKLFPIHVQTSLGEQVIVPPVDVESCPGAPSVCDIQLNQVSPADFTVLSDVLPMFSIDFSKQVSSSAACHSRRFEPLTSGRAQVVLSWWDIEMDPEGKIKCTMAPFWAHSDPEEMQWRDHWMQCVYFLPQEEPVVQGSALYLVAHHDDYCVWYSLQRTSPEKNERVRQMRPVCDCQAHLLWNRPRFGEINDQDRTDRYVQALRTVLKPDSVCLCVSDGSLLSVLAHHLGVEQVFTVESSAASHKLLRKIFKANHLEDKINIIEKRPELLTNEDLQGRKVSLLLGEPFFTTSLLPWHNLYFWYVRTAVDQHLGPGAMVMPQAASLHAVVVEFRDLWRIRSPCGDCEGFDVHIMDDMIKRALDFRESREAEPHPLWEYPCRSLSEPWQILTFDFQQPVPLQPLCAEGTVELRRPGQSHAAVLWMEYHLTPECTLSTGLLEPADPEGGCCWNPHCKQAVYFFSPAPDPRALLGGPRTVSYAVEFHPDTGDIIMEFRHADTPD

[5] = target: DNA (cytosine-5)-methyltransferase 3A (Homo sapiens, UniProt Q9Y6K1); test: Inhibition of human full length DNMT3A expressed in Sf9 cells
[6] = target: DNA (cytosine-5)-methyltransferase 3B (Homo sapiens, UniProt Q9UBC3); test: Inhibition of human full length DNMT3B expressed in Sf9 cells
PRMT5/MEP50 complex [7] = target: T2, PRMT5/MEP50 complex; test: Binding affinity to human full length PRMT5-MEP50 complex by Surface plasmon resonance method; type: protein-complex assay
[8] = target: T3, Protein arginine N-methyltransferase 7; test: Binding affinity to human full length PRMT7 by Surface plasmon resonance method
[9] = target: T1, PRMT5/MEP50 complex (Homo sapiens); test: Noncompetitive inhibition of human full length PRMT5-MEP50 complex expressed in Sf9 cells in presence of increasing concentration of histone peptide substrate
[10] = target: Protein arginine N-methyltransferase 1 (Homo sapiens) (UniProt Q99873); test: Inhibition of PRMT1 (unknown origin)
[11] = target: Protein arginine N-methyltransferase 3 (Homo sapiens) (UniProt O60678); test: Inhibition of PRMT3 (unknown origin)
[12] = target: Protein arginine N-methyltransferase 6 (Homo sapiens) (UniProt Q96LA8); test: Inhibition of PRMT6 (unknown origin)
[13] = target: Protein arginine N-methyltransferase 8 (Homo sapiens) (UniProt Q9NR22); test: Inhibition of PRMT8 (unknown origin)
MDA-MB-231 [14] = test: Inhibition of H4R3 methylation in human MDA-MB-231 cells at 50 uM by immunoblotting analysis; type: functional, cell-based
MDA-MB-231 [15] = test: Cytotoxicity against human MDA-MB-231 cells assessed as cell viability by Alamar blue assay; type: cell-based
[16] = target: T1, PRMT5/MEP50 complex (Homo sapiens); test: Inhibition of human full length PRMT5-MEP50 complex expressed in Sf9 cells using SmD3 peptide AGRGRGKAAILKAQVAARGRGRGMGRGN as a substrate
PRMT5/MEP50 complex [17] = target: T2, PRMT5/MEP50 complex; test: Inhibition of human full length PRMT5-MEP50 complex expressed in Sf9 cells using full length histone H4 substrate
[18] = target: T1, PRMT5/MEP50 complex (Homo sapiens); test: Inhibition of human full length PRMT5-MEP50 complex expressed in Sf9 cells assessed as inhibition of methylation of peptide substrate at 750 uM

T2 sequence (O14744 whole entry): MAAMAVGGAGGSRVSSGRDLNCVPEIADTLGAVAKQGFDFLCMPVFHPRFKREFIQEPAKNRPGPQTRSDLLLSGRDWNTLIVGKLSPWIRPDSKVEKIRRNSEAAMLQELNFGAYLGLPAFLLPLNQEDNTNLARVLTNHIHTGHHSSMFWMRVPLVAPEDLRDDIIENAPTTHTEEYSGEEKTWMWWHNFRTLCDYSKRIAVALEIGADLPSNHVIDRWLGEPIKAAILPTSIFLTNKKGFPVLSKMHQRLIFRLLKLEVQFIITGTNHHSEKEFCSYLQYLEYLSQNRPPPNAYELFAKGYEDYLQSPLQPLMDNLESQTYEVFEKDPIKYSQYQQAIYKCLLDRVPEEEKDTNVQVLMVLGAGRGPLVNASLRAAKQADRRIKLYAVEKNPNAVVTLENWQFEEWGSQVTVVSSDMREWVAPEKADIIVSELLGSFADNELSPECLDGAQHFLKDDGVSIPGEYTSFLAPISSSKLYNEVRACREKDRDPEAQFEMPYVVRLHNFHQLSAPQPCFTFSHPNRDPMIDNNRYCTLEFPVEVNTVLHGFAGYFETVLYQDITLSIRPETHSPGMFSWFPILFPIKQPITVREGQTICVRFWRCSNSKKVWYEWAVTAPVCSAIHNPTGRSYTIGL
T2 sequence (Q9BQA1 whole entry, further chain): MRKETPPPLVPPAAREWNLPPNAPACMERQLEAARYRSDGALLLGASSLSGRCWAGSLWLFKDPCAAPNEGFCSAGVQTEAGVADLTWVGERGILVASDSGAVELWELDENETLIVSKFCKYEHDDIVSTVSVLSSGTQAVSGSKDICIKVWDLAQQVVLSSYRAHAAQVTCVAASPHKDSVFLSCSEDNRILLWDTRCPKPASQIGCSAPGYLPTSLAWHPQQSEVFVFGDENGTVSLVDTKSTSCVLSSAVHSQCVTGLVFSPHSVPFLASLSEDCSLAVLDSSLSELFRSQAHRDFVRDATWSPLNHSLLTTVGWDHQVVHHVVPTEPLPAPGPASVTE
DNA (cytosine-5)-methyltransferase 3A, sequence (Q9Y6K1 whole entry, looked up): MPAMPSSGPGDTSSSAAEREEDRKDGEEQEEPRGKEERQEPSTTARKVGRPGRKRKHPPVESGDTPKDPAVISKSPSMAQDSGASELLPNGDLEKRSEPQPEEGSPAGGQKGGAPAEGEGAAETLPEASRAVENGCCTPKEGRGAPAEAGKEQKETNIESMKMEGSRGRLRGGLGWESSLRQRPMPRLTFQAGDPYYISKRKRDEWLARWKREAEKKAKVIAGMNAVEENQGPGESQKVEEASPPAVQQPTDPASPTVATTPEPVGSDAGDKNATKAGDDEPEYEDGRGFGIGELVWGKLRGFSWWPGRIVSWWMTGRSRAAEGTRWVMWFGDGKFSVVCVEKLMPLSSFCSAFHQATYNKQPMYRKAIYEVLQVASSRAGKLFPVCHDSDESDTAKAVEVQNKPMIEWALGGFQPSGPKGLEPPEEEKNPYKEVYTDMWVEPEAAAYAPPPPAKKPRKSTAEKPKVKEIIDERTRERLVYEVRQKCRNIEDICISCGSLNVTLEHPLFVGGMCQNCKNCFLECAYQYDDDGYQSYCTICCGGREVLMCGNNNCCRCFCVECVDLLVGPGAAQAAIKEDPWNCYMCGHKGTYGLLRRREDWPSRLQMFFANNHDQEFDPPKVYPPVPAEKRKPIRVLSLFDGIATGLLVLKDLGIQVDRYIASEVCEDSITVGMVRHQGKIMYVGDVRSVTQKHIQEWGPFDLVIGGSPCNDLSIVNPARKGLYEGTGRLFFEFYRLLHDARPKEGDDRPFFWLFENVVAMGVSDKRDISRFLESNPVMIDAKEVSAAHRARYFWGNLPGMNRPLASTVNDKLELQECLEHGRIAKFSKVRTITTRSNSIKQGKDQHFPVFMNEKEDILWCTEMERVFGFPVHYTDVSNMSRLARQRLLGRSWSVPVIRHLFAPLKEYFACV
Protein arginine N-methyltransferase 8 (Homo sapiens), sequence (Q9NR22 2-394 limits assumed): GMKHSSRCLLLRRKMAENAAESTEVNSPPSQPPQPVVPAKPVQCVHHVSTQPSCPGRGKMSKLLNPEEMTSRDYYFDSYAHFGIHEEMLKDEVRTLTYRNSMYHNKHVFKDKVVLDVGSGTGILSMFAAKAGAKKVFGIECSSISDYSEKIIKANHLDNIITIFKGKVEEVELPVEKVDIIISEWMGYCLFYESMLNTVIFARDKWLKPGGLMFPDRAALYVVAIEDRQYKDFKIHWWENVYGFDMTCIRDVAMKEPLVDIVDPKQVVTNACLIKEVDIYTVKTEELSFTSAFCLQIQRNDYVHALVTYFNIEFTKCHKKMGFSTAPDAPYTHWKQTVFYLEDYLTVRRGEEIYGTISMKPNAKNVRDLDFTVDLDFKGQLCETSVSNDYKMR
Protein arginine N-methyltransferase 5, sequence (O14744 whole entry): as the sequence (O14744 whole entry) above
Protein arginine N-methyltransferase 1 (Homo sapiens), sequence (Q99873 whole entry, looked up): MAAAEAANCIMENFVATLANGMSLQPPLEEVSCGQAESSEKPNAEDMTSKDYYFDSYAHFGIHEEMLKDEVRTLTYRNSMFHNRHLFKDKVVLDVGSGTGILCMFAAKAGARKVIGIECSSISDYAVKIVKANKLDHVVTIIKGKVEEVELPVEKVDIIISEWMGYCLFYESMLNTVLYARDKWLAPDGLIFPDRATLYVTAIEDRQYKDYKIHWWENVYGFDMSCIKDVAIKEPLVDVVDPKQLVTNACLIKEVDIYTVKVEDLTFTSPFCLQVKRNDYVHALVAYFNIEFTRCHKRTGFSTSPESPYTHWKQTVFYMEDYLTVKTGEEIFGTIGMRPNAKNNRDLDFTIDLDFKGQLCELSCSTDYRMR
Protein arginine N-methyltransferase 3 (Homo sapiens), sequence (O60678 2-531 limits assumed): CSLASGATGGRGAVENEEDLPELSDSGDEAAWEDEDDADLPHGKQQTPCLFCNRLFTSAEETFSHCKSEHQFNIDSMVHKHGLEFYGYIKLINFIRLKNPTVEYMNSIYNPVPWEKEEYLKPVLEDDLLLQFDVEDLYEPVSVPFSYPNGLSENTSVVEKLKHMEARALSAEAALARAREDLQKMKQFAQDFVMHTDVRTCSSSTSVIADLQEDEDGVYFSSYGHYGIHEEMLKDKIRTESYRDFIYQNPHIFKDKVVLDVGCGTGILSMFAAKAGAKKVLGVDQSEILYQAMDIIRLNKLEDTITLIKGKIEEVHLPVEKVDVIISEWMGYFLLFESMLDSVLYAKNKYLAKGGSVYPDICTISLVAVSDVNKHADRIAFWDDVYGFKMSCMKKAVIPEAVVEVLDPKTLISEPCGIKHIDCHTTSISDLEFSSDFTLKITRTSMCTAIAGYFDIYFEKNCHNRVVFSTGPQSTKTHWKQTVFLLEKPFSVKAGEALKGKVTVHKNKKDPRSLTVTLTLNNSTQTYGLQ
Protein arginine N-methyltransferase 6 (Homo sapiens), sequence (Q96LA8 whole entry, looked up): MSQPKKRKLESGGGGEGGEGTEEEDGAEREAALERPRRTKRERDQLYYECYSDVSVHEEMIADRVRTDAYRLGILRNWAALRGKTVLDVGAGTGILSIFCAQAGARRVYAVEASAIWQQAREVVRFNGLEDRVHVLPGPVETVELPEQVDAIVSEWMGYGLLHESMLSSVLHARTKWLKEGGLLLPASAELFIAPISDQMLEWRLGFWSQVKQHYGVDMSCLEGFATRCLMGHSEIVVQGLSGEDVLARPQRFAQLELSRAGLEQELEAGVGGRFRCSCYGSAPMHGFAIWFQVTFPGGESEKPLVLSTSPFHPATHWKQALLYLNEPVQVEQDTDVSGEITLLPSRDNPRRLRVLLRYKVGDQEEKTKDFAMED

Structure (SMILES) | inhibition [1] | IC50 (PRMT5/MEP50 complex [2]) | IC50 [3] | IC50 [4] | IC50 [5] | IC50 [6] | Kd (PRMT5/MEP50 complex [7]) | Kd [8] | inhibition [9] | inhibition [10] | inhibition [11] | inhibition [12] | inhibition [13] | inhibition (MDA-MB-231 [14]) | Activity (MDA-MB-231 [15]) | inhibition [16] | IC50 (PRMT5/MEP50 complex [17]) | inhibition [18]
CCNC(=O)NCCSC[C@H]1O[C@@H](n2cnc3c(N)ncnc32)[C@H](O)[C@@H]1O | Dose-dependent effect | 5.9 µM | > 50 µM | > 50 µM | > 50 µM | > 50 µM | 25 µM | 37 µM | Active | inactive | inactive | inactive | inactive | inactive | Non-toxic | Active | 37 µM | 
CC(C)N(CCCNC(=O)Nc1ccc(C(C)(C)C)cc1)C[C@H]1O[C@@H](n2ccc3c(N)ncnc32)[C@H](O)[C@@H]1O |  | > 20 µM |  | 7.5 µM |  |  |  |  |  |  |  |  |  |  |  |  |  | 80%
Nc1ncnc2c1ncn2[C@@H]1O[C@H](CSCC[C@H](N)C(=O)O)[C@@H](O)[C@H]1O [S-ADENOSYLHOMOCYSTEINE] |  |  |  |  | > 50 µM | > 50 µM |  |  |  |  |  |  |  |  |  |  |  | 

From ChEMBL document CHEMBL3576805, “Discovery of a Dual PRMT5-PRMT7 Inhibitor” (ACS Med Chem Lett, 2015)
